Literature values as cited in patent publication US20250325480A1, “Lipid Nanoparticle Compositions and Methods For Formulating Insoluble Drugs” (RESPIRERX PHARMACEUTICALS, INC., priority 2022, published 2025).

Legend:
[1] = not given; remark: listed apart in the source

## CCCCCc1cc(O)c2c(c1)OC(C)(C)[C@@H]1CCC(C)=C[C@@H]21 [Dronabinol, (−)-trans-Δ^9-tetrahydrocannabinnol]
10 mg dose, Marinol package insert
  Adverse side effects: unacceptable adverse side effects
2.5 and 10 mg doses, first 4 hours of 8-hour test period
  OSA alleviating effects: therapeutically equivalent OSA alleviating effects
Second 4 hours of 8-hour test period
  Therapeutic effects in OSA: only the 10 mg dose produced therapeutic effects
[1]; as presently formulated
  Metabolic breakdown upon first pass through the liver: approximately 80%
[1]; in vivo
  Half-life: 2 to 3 h
